Reference: patent publication US7323484B2, “Farnesyl transferase inhibitors” (Societe de Conseils de Recherches et d'Applications …, priority 1996, dated 2008)

Tested on: MIA-PaCa pancreatic cancer cells (expressing mutated Ki-ras gene)
Assay: Antiproliferative activity on human tumoral cells, WST-1 assay, MIA PaCa-2
Type: cell-based
Details: MIA PaCa-2 cells, 96 hrs treatment, 0 to 100 μM, WST-1, compared to control cells
Experimental: Antiproliferative Activity of Farnesyl-Transferase Inhibitors on Human Tumoral Cells
The assays were performed using either A-427 lung carcinomas (expressing mutated Ki-ras gene), HT-29 colon adenocarcinomas (expressing wild type ras gene), Calu-1 lung carcinomas (expressing mutated Ki-ras gene), and MIA-PaCa pancreatic cancer cells (expressing mutated Ki-ras gene). These tumoral cells were seeded on 96 well plates at day 0 and maintained at 37° C. in 5% CO2 atmosphere. At day 1, cells were treated with increased concentrations of test compounds ranging from 0 to 100 μM for 96 hrs. At the end of this period, the quantification of cell proliferation was evaluated by the calorimetric assay based on the cleavage of the tetrazolium salt WST-1 by mitochondrial dehydrogenases in viable cells leading to the formazan formation (Cell Proliferation Reagent WST-1 Kit, Boehringer Mannheim, Germany). These experiments, done in octuplicate, were repeated twice. The results, shown in Table I, depict the concentration range (μM) of test compound required to inhibit proliferation as compared to control cells in which no test compound was added.

SMILES | concentration range of test compound required to inhibit proliferation, MIA PaCa-2
CCCC[C@H]1c2nc(-c3ccccc3OC)cn2CCN1C(=O)[C@@H](N)CS [Compound 3, 7-(2-amino-1-oxo-3-thio-propyl)-8-butyl-2-(2-methoxy-phenyl)-5,6,7,8-tetrahydro-imidazo-[1,2a]-pyrazine] | 12.5 to 25 µM
CCC(C)[C@H]1c2nc(-c3ccccc3OC)cn2CCN1C(=O)[C@@H](N)CSSC[C@H](N)C(=O)N1CCn2cc(-c3ccccc3OC)nc2[C@@H]1C(C)CC (stereo partly shown) [Compound 20, bis-1,1′-[7-(2-amino-1-oxo-3-thiopropyl)-2-(methoxyphenyl)-8-(1-methylpropyl)-5,6,7,8-tetrahydroimidazo[1,2a]pyrazine]disulfide] | 12.5 µM
COc1ccccc1-c1cn2c(n1)[C@H](C(C)(C)C)N(C(=O)[C@@H](N)CS)CC2 [Compound 24, 7-(2-amino-1-oxo-3-thiopropyl)-8-(1,1-dimethylethyl)-2-(2-methoxyphenyl)-5,6,7,8-tetrahydroimidazo[1,2a]pyrazine] | 25 to 50 µM
CCC(C)[C@H]1c2nc(-c3ccccc3OCc3ccccc3)cn2CCN1C(=O)[C@@H](N)CS (stereo partly shown) [Compound 25, 7-(2-amino-1-oxo-3-thiopropyl)-8-(1-methylpropyl)-2-(2-(phenylmethoxy)phenyl)-5,6,7,8-tetrahydroimidazo[1,2a]pyrazine] | 6.25 to 12.5 µM
COc1ccccc1-c1cn2c(n1)[C@H](CC1CCCCC1)N(C(=O)[C@@H](N)CS)CC2 [Compound 26, 7-(2-amino-1-oxo-3-thiopropyl)-8-(cyclohexylmethyl)-2-(2-methoxyphenyl)-5,6,7,8-tetrahydroimidazo[1,2a]pyrazine] | 6.25 to 12.5 µM
CCCC[C@H]1c2nc(-c3c(O)cccc3OC)cn2CCN1C(=O)[C@@H](N)CS [Compound 29, 7-(2-amino-1-oxo-3-thiopropyl)-8-butyl-2 (2-hydroxy-6-methoxyphenyl)-5,6,7,8-tetrahydro[1,2a]pyrazine] | 6.25 to 12.5 µM
COc1ccccc1-c1cn2c(n1)[C@H](C(C)(C)C)N(C(=O)[C@@H](N)CSSC[C@H](N)C(=O)N1CCn3cc(-c4ccccc4OC)nc3[C@@H]1C(C)(C)C)CC2 [Compound 30, bis-1,1′-[7-(2-amino-1-oxo-3-thiopropyl)-8-(1,1-dimethylethyl)-2-(2-methoxyphenyl)-5,6,7,8-tetrahydroimidazo[1,2a]pyrazine]disulfide] | 12.5 to 25 µM
